Molecules are shown by their SMILES.

The target of assay [1] is amino acid substituted PPO enzyme R128L (Amaranthus tuberculatus, UniProt Q0NZW9, R128L). Nature of the assay: biochemical.
Assay [2] addresses amino acid substituted PPO enzyme F420I (Amaranthus tuberculatus, UniProt Q0NZW9, F420I). Nature of the assay: biochemical.
The target in assay [3] is amino acid substituted PPO enzyme L397D (Amaranthus tuberculatus, UniProt Q0NZW9, L397D). Nature of the assay: biochemical.
In assay [4] the target is amino acid substituted PPO enzyme R128A, F420L (Amaranthus tuberculatus, UniProt Q0NZW9, F420L/R128A). The assay is described as follows: biochemical.
The target in assay [5] is amino acid substituted PPO enzyme R128A, F420I (Amaranthus tuberculatus, UniProt Q0NZW9, F420I/R128A). Nature of the assay: biochemical.
Assay [6] addresses amino acid substituted PPO enzyme dG210 (Amaranthus tuberculatus, UniProt Q0NZW9, DEL211-211, form not given). In kind it is biochemical.
Assay [7] concerns the target amino acid substituted PPO enzyme R128A, F420M (Amaranthus tuberculatus, UniProt Q0NZW9, F420M/R128A). The assay is described as follows: biochemical.
Assay [8] addresses amino acid substituted PPO enzyme F420M (Amaranthus tuberculatus, UniProt Q0NZW9, F420M). Nature of the assay: biochemical.
The target of assay [9] is amino acid substituted PPO enzyme F420V (Amaranthus tuberculatus, UniProt Q0NZW9, F420V). Nature of the assay: biochemical.
The target in assay [10] is amino acid substituted PPO enzyme F420L (Amaranthus tuberculatus, UniProt Q0NZW9, F420L). The assay is described as follows: biochemical.
Assay [11] concerns the target amino acid substituted PPO enzyme L397N (Amaranthus tuberculatus, UniProt Q0NZW9, L397N). Nature of the assay: biochemical.
In assay [12] the target is amino acid substituted PPO enzyme R128A (Amaranthus tuberculatus, UniProt Q0NZW9, R128A). Nature of the assay: biochemical.

As usually defined, the IC50 is the concentration needed to halve the response being measured. As to `C#CCN1C(=O)C(F)(F)Oc2cc(F)c(-n3c(=O)n(C)c(=S)n(C)c3=O)cc21` [benzoxazinone 1.a.35], the half-maximal inhibitory concentration (IC50) in [1] came out at 0.773 nM; in [2], 0.495 nM; in assay [3], 0.272 nM; in assay [4], 23.8 nM; in [5] it was 19.8 nM; in [6], 2.12 nM. Further, the IC50 in assay [7] worked out at 6.24 nM; in assay [8], 0.275 nM; in assay [9], 2.45 nM; in [10], 0.993 nM; in assay [11], 0.235 nM; in [12], 0.14 nM.

Source of the values: patent US12570994B2, “Plants having increased tolerance to herbicides” (BASF AGRO B.V., priority 2010, dated 2026).
